Laboratory results from ChEMBL document CHEMBL1134098, “Bioisosteric determinants for subtype selectivity of ligands for heteromeric GABA(A) receptors” (Bioorg Med Chem Lett, 2001).
pEC50, pKi: −log10 of the molar value.

Tests used:
[1] = target: T1, GABA-A receptor; alpha-1/beta-3/gamma-2 (Homo sapiens, UniProt P14867+P18507+P28472); assay: Effective agonist dose for human Gamma-aminobutyric acid A receptor alpha-1-beta-3-gamma-2 expressed in Xenopus oocytes; assay type: functional, cell-based, Oocyte
T1 sequence (P14867 whole entry): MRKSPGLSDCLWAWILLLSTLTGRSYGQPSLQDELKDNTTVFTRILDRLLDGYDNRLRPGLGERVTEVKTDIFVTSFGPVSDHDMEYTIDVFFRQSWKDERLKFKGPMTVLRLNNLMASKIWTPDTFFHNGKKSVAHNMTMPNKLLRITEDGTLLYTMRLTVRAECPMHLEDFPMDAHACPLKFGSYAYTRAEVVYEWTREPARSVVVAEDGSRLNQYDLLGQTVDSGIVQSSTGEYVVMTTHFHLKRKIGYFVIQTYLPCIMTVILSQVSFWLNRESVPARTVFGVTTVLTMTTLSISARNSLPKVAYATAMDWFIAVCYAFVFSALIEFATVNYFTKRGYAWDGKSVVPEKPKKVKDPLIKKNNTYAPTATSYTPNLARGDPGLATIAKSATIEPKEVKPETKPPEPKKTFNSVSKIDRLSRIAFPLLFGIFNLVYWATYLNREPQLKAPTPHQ
T1 sequence (P18507 whole entry): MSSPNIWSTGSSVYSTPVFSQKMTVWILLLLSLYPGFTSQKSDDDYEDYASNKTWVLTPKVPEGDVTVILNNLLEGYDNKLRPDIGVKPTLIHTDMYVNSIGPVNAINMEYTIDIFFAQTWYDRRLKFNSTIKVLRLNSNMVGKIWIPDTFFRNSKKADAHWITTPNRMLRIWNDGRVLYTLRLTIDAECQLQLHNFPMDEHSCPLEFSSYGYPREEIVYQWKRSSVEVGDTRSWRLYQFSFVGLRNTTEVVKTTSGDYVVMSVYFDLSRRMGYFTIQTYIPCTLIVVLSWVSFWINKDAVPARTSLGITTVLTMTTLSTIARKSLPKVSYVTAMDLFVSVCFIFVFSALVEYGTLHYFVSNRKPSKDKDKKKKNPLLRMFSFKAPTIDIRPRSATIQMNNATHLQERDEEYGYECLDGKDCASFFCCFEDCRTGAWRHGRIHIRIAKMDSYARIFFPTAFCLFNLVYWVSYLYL
T1 sequence (P28472 whole entry): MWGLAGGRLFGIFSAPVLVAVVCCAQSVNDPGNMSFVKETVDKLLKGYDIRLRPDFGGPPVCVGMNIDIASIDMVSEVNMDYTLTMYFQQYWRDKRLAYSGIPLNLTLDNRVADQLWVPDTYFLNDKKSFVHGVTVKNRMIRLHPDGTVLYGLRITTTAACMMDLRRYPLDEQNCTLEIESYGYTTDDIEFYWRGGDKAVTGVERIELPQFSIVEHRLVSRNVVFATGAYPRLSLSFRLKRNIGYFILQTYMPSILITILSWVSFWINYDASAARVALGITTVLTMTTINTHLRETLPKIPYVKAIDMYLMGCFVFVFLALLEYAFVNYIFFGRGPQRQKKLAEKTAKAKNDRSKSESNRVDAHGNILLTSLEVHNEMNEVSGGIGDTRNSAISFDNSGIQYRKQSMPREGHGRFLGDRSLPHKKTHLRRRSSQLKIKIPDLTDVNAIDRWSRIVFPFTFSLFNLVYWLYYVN

[2] = target: T2, GABA-A receptor; alpha-5/beta-3/gamma-2 (Homo sapiens, UniProt P18507+P28472+P31644); assay: Effective agonist dose for human Gamma-aminobutyric acid A receptor alpha-5-beta-3-gamma-2 expressed in Xenopus oocytes; assay type: functional, cell-based, Oocyte
T2 sequence (P18507 whole entry): T1 sequence (P18507 whole entry)
T2 sequence (P28472 whole entry): T1 sequence (P28472 whole entry)
T2 sequence (P31644 whole entry): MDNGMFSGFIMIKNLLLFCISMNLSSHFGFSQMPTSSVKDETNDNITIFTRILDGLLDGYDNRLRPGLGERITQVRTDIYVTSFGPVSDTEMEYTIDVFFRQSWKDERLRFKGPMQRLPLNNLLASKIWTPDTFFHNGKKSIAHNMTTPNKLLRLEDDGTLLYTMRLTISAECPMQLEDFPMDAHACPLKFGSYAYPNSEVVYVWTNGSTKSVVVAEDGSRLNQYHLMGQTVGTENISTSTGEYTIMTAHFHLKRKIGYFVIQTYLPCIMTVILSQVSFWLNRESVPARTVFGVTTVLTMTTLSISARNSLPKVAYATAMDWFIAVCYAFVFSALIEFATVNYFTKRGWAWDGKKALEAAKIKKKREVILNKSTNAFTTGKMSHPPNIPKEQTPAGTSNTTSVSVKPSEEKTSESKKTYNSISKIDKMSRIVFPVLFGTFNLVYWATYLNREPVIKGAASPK

[3] = target: GABA-A receptor; alpha-1/beta-3/gamma-2 (Homo sapiens) (UniProt P14867+P18507+P28472); assay: Maximal response relative to Gamma-aminobutyric acid A against human Gamma-aminobutyric-acid A receptor alpha-1-beta-3-gamma-2 expressed in Xenopus oocytes; assay type: functional, cell-based; settings: Oocyte
[4] = target: GABA-A receptor; alpha-3/beta-3/gamma-2 (Homo sapiens) (UniProt P18507+P28472+P34903); assay: Maximal response relative to Gamma-aminobutyric acid A against human Gamma-aminobutyric-acid A receptor alpha-3-beta-3-gamma-2 expressed in Xenopus oocytes; assay type: functional, cell-based; settings: Oocyte
[5] = target: T3, GABA A receptor alpha-4/beta-3/gamma-2 (Homo sapiens, UniProt P18507+P28472+P48169); assay: Effective agonist dose for human Gamma-aminobutyric acid A receptor alpha-4-beta-3-gamma-2; assay type: functional
[6] = target: T4, GABA-A receptor; alpha-6/beta-3/gamma-2 (Homo sapiens, UniProt P18507+P28472+Q16445); assay: Effective agonist dose for human Gamma-aminobutyric acid A receptor alpha-6-beta-3-gamma-2; assay type: functional
[7] = target: T5, GABA-A receptor; alpha-2/beta-3/gamma-2 (Homo sapiens, UniProt P18507+P28472+P47869); assay: Agonist activity on human Gamma-aminobutyric acid A receptor alpha-2-beta-3-gamma-2 expressed in Xenopus oocytes; assay type: functional, cell-based, Oocyte
T5 sequence (P18507 whole entry): T1 sequence (P18507 whole entry)
T5 sequence (P28472 whole entry): T1 sequence (P28472 whole entry)
T5 sequence (P47869 whole entry): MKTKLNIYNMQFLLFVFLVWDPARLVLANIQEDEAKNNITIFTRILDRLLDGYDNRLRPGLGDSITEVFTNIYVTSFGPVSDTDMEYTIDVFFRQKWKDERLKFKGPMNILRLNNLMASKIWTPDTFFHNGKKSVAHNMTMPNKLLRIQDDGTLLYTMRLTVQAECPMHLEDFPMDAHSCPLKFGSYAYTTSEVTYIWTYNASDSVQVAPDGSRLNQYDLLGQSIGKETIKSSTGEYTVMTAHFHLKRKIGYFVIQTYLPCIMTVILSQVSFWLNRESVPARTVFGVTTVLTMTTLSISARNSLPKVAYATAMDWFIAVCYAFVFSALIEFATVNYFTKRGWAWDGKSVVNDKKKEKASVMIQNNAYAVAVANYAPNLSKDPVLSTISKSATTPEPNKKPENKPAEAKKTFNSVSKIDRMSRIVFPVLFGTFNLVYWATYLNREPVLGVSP

[8] = target: T6, GABA-A receptor; alpha-3/beta-3/gamma-2 (Homo sapiens, UniProt P18507+P28472+P34903); assay: Effective dose for agonist activity on activity on human Gamma-aminobutyric acid A receptor alpha-3-beta-3-gamma-2 expressed in Xenopus oocytes; assay type: functional, cell-based, Oocyte
T6 sequence (P18507 whole entry): T1 sequence (P18507 whole entry)
T6 sequence (P28472 whole entry): T1 sequence (P28472 whole entry)
T6 sequence (P34903 whole entry): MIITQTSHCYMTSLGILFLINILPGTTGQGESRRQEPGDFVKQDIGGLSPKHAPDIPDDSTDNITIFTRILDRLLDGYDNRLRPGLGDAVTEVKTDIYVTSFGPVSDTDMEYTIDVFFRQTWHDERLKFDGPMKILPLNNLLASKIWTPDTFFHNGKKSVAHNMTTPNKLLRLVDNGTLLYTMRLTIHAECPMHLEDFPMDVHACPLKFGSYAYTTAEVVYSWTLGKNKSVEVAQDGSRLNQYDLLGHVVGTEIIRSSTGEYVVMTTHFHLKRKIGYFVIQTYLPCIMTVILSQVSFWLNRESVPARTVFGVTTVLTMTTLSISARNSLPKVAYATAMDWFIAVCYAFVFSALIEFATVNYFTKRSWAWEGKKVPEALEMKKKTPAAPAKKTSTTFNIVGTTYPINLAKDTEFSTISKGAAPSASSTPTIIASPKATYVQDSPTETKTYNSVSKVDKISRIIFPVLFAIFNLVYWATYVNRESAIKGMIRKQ

[9] = target: T3, GABA A receptor alpha-4/beta-3/gamma-2; assay: Maximal response relative to Gamma-aminobutyric acid A against human Gamma-aminobutyric-acid A receptor alpha-4-beta-3-gamma-2 expressed in Xenopus oocytes; assay type: functional, cell-based; settings: Oocyte
[10] = target: GABA-A receptor; alpha-2/beta-3/gamma-2 (Homo sapiens) (UniProt P18507+P28472+P47869); assay: Maximal response relative to Gamma-aminobutyric acid A against human Gamma-aminobutyric-acid A receptor alpha-2-beta-3-gamma-2 expressed in Xenopus oocytes; assay type: functional, cell-based; settings: Oocyte
[11] = target: T4, GABA-A receptor; alpha-6/beta-3/gamma-2; assay: Maximal response relative to Gamma-aminobutyric acid A against human Gamma-aminobutyric-acid A receptor alpha-6-beta-3-gamma-2 expressed in Xenopus oocytes; assay type: functional, cell-based; settings: Oocyte
[12] = target: GABA-A receptor; alpha-5/beta-3/gamma-2 (Homo sapiens) (UniProt P18507+P28472+P31644); assay: Maximal response relative to Gamma-aminobutyric acid A against human Gamma-aminobutyric-acid A receptor alpha-5-beta-3-gamma-2 expressed in Xenopus oocytes; assay type: functional, cell-based; settings: Oocyte
[13] = target: T6, GABA-A receptor; alpha-3/beta-3/gamma-2; assay: Agonist activity on human Gamma-aminobutyric acid A receptor alpha-3-beta-3-gamma-2 expressed in Xenopus oocytes; assay type: functional, cell-based, Oocyte
[14] = target: T5, GABA-A receptor; alpha-2/beta-3/gamma-2; assay: Effective dose for agonist activity on human Gamma-aminobutyric acid A receptor alpha-2-beta-3-gamma-2 in Xenopus oocytes; assay type: functional, cell-based, Oocyte
[15] = target: T1, GABA-A receptor; alpha-1/beta-3/gamma-2; assay: Antagonistic potency against human Gamma-aminobutyric acid A receptor alpha-1-beta-3-gamma-2 expressed in Xenopus oocytes at 1 mM; assay type: functional, cell-based, Oocyte
[16] = target: T2, GABA-A receptor; alpha-5/beta-3/gamma-2; assay: Antagonistic potency against human Gamma-aminobutyric acid A receptor alpha-5-beta-3-gamma-2 expressed in Xenopus oocytes at 1 mM; assay type: functional, cell-based, Oocyte
[17] = target: T5, GABA-A receptor; alpha-2/beta-3/gamma-2; assay: Antagonistic potency against human Gamma-aminobutyric acid A receptor alpha-2-beta-3-gamma-2 expressed in Xenopus oocytes at 1 mM; assay type: functional, cell-based, Oocyte
[18] = target: T6, GABA-A receptor; alpha-3/beta-3/gamma-2; assay: Antagonistic potency against human Gamma-aminobutyric acid A receptor alpha-3-beta-3-gamma-2 expressed in Xenopus oocytes at 1 mM; assay type: functional, cell-based, Oocyte
[19] = target: T3, GABA A receptor alpha-4/beta-3/gamma-2; assay: Antagonistic potency against human […] Gamma-aminobutyric acid A receptor alpha-4-beta-3-gamma-2; assay type: functional
[20] = target: T4, GABA-A receptor; alpha-6/beta-3/gamma-2; assay: Antagonistic potency against human Gamma-aminobutyric acid A receptor alpha-6-beta-3-gamma-2 expressed in Xenopus oocytes at 1 mM; assay type: functional, cell-based, Oocyte

T3 sequence (P48169 whole entry, one chain of several): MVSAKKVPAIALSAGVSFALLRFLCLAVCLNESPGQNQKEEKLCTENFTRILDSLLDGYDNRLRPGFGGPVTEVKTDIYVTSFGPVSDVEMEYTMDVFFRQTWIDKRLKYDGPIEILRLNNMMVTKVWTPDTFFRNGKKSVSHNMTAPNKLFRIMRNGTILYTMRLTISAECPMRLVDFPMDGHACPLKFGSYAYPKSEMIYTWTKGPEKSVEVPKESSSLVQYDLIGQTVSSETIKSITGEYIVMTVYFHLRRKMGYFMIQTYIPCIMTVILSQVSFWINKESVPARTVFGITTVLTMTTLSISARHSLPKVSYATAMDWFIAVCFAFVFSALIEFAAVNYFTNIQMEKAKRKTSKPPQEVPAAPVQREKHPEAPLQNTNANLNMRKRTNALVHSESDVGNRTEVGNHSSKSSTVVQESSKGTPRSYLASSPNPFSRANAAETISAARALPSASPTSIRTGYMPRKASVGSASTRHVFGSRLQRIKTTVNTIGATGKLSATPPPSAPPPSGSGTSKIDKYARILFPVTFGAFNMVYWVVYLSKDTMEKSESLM
T4 sequence (Q16445 whole entry, one chain of several): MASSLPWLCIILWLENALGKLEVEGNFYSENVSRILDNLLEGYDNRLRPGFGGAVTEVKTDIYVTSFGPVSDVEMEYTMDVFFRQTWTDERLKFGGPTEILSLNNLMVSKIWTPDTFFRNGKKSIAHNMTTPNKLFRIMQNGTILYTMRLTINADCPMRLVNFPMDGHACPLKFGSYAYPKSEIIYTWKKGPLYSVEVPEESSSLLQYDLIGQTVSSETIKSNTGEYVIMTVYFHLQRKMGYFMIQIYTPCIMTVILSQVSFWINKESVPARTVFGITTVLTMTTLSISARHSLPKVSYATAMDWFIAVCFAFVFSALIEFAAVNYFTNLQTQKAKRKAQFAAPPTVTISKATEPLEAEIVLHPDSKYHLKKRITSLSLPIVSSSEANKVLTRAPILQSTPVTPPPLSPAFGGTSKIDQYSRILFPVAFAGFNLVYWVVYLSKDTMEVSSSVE

Row | Structure (SMILES) | pEC50 [1] | pEC50 [2] | Max [3] | Max [4] | pEC50 [5] | pEC50 [6] | pEC50 [7] | pEC50 [8] | Max [9] | Max [10] | Max [11] | Max [12] | pEC50 [13] | pEC50 [14] | pKi [15] | pKi [16] | pKi [17] | pKi [18] | pKi [19] | pKi [20]
1 | O=[Se](O)C1CCNCC1 | 3.70 | 3.38 | 3 | 28 | 3.80 | 3.62 | – | – | 0 | 2 | 13 | 3 | 3.74 | 3.77 | – | – | – | – | – | –
2 | O=[PH](O)C1(O)CCNCC1 | – | – | – | – | – | – | – | – | – | – | – | – | – | – | 2.85 | 2.72 | 2.82 | 2.31 | 2.68 | 2.52

Second part, led by results:

Row | pEC50 [1] | pEC50 [2] | Max [3] | Max [4] | pEC50 [5] | pEC50 [6] | pEC50 [7] | pEC50 [8] | Max [9] | Max [10] | Max [11] | Max [12] | Structure (SMILES) | pEC50 [13] | pEC50 [14] | pKi [15] | pKi [16] | pKi [17] | pKi [18] | pKi [19] | pKi [20]
3 | 3.21 | 3.16 | 46 | 46 | 3.52 | 3.80 | 3.38 | 3.43 | 104 | 53 | 83 | 57 | O=C(O)C1CCNCC1 [ISONIPECOTIC ACID] | – | – | – | – | – | – | – | –
4 | 3.80 | 4.12 | 88 | 69 | 3.74 | 4.70 | 4.30 | – | 88 | 88 | 98 | 94 | O=C(O)C1=CCNCC1 [ISOGUVACINE] | 4.26 | – | – | – | – | – | – | –
5 | – | – | 100 | 100 | – | – | – | – | 100 | 100 | 100 | 100 | NCCCC(=O)O | – | – | – | – | – | – | – | –
